Measured values reported in ChEMBL document CHEMBL1201862, “PubChem BioAssay data set” (2004).
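Briefly, cells in 96-well plates were exposed to five compound concentrations for 48 h, and endpoints were estimated by linear interpolation. GI50 = concentration required for 50% inhibition of growth.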 Calls of active or inactive are those of the source. Rule as the data show it: active = GI50 up to about 1.1 µM and inactive = higher.

Assays:
Assay in all cases: inhibition of tumour cell growth, NCI panel, 48 h
[1] = system: SF-268
[2] = system: EKVX
[3] = system: TK-10
[4] = system: ACHN
[5] = system: T47D
[6] = system: HOP-62
[7] = system: CAKI-1
[8] = system: KM12
[9] = system: K562
[10] = system: HL-60
[11] = system: A549
[12] = system: MDA-MB-435
[13] = system: NCI-H460
[14] = system: SNB-19
[15] = system: MCF7
[16] = system: SF-295
[17] = system: NCI-H226
[18] = system: MDA-MB-231
[19] = system: UACC-62
[20] = system: COLO 205
[21] = system: SK-OV-3
[22] = system: SK-MEL-2
[23] = system: SN12C
[24] = system: NCI-H522
[25] = system: PC-3
[26] = system: UO-31
[27] = system: SNB-75
[28] = system: 786-0
[29] = system: DU-145
[30] = system: OVCAR-3
[31] = system: SW-620
[32] = system: Malme-3M
[33] = system: UACC-257
[34] = system: BT-549
[35] = system: HCT-116
[36] = system: OVCAR-5
[37] = system: Hs-578T
[38] = system: SF-539
[39] = system: HCT-15
[40] = system: NCI-H23
[41] = system: NCI/ADR-RES
[42] = system: M14
[43] = system: SK-MEL-28
[44] = system: MDA-N
[45] = system: SK-MEL-5
[46] = system: SR
[47] = system: LOX IMVI
[48] = system: U-251
[49] = system: MOLT-4
[50] = system: HT-29
[51] = system: IGROV-1
[52] = system: HOP-92
[53] = system: HCC 2998
[54] = system: OVCAR-4
[55] = system: RPMI-8226
[56] = system: CCRF-CEM
[57] = system: OVCAR-8
[58] = system: RXF 393

CCOC(=O)/C=C(\C(=O)OCC)n1ccc(N)nc1=O
GI50 [1]: > 99.8 µM (inactive)
GI50 [2]: 62.8 µM (inactive)
GI50 [3]: > 100 µM (inactive)
GI50 [4]: > 100 µM (inactive)
GI50 [5]: > 100 µM (inactive)
GI50 [6]: > 100 µM (inactive)
GI50 [7]: 37.7 µM (inactive)
GI50 [8]: > 100 µM (inactive)
GI50 [9]: 67.9 µM (inactive)
GI50 [10]: 26.6 µM (inactive)
GI50 [11]: > 100 µM (inactive)
GI50 [12]: 94.6 µM (inactive)
GI50 [13]: > 100 µM (inactive)
GI50 [14]: > 100 µM (inactive)
GI50 [15]: > 100 µM (inactive)
GI50 [16]: > 100 µM (inactive)
GI50 [17]: > 100 µM (inactive)
GI50 [18]: > 100 µM (inactive)
GI50 [19]: > 100 µM (inactive)
GI50 [20]: > 100 µM (inactive)
GI50 [21]: > 100 µM (inactive)
GI50 [22]: > 100 µM (inactive)
GI50 [23]: > 100 µM (inactive)
GI50 [24]: 18.2 µM (inactive)
GI50 [25]: > 100 µM (inactive)
GI50 [26]: > 100 µM (inactive)
GI50 [27]: > 100 µM (inactive)
GI50 [28]: > 100 µM (inactive)
GI50 [29]: > 100 µM (inactive)
GI50 [30]: > 100 µM (inactive)
GI50 [31]: 56.4 µM (inactive)
GI50 [32]: 45.7 µM (inactive)
GI50 [33]: > 100 µM (inactive)
GI50 [34]: 38.6 µM (inactive)
GI50 [35]: > 100 µM (inactive)
GI50 [36]: 33 µM (inactive)
GI50 [37]: > 100 µM (inactive)
GI50 [38]: > 100 µM (inactive)
GI50 [39]: > 100 µM
GI50 [40]: > 100 µM (inactive)
GI50 [41]: > 100 µM (inactive)
GI50 [42]: > 100 µM (inactive)
GI50 [43]: 1.34 µM (inactive)
GI50 [44]: > 100 µM (inactive)
GI50 [45]: > 100 µM (inactive)
GI50 [46]: 87.7 µM (inactive)
GI50 [47]: 88.7 µM (inactive)
GI50 [48]: 72.3 µM (inactive)
GI50 [49]: 97.1 µM (inactive)
GI50 [50]: 52.2 µM (inactive)
GI50 [51]: > 100 µM (inactive)
GI50 [52]: 57.4 µM (inactive)
GI50 [53]: > 100 µM (inactive)
GI50 [54]: 72.9 µM (inactive)
GI50 [55]: > 100 µM (inactive)
GI50 [56]: 22.4 µM (inactive)
GI50 [57]: > 100 µM (inactive)

Cc1ccc([C@@H]2[C@@H](C(=O)c3ccccn3)[C@H](c3ccc(C)cc3)C[C@](O)(c3ccccn3)[C@H]2C(=O)c2ccccn2)cc1
GI50 [1]: 0.946 µM (active)
GI50 [2]: 0.728 µM (active)
GI50 [3]: 6.05 µM (inactive)
GI50 [4]: 2.51 µM (inactive)
GI50 [5]: 7.73 µM (inactive)
GI50 [6]: 5.73 µM (inactive)
GI50 [7]: 3.95 µM (inactive)
GI50 [8]: 7.98 µM (inactive)
GI50 [10]: 2.52 µM (inactive)
GI50 [11]: 2.77 µM (inactive)
GI50 [12]: 8.22 µM (inactive)
GI50 [13]: 2.27 µM (inactive)
GI50 [14]: 3.04 µM (inactive)
GI50 [15]: 4.86 µM (inactive)
GI50 [16]: 4.21 µM (inactive)
GI50 [17]: 4.1 µM (inactive)
GI50 [18]: > 32 µM (inactive)
GI50 [19]: 3.16 µM (inactive)
GI50 [20]: 5.24 µM (inactive)
GI50 [22]: 3.46 µM (inactive)
GI50 [23]: 3.18 µM (inactive)
GI50 [24]: 32.8 µM (inactive)
GI50 [25]: 6.56 µM (inactive)
GI50 [26]: 2.32 µM (inactive)
GI50 [27]: 3.33 µM (inactive)
GI50 [28]: 1.81 µM (inactive)
GI50 [29]: 2.17 µM (inactive)
GI50 [30]: 7.8 µM (inactive)
GI50 [31]: > 22.6 µM (inactive)
GI50 [32]: 8.79 µM (inactive)
GI50 [33]: 8.04 µM (inactive)
GI50 [34]: > 27.4 µM (inactive)
GI50 [35]: 2.89 µM (inactive)
GI50 [36]: 8.93 µM (inactive)
GI50 [58]: 3.15 µM (inactive)
GI50 [37]: 26.5 µM (inactive)
GI50 [38]: 2.08 µM (inactive)
GI50 [39]: 1.77 µM
GI50 [40]: 18.8 µM (inactive)
GI50 [41]: 2.86 µM (inactive)
GI50 [42]: 1.31 µM (inactive)
GI50 [43]: 6.11 µM (inactive)
GI50 [44]: 3.69 µM (inactive)
GI50 [45]: 3.71 µM (inactive)
GI50 [46]: 0.495 µM (active)
GI50 [47]: 2.84 µM (inactive)
GI50 [48]: 2.77 µM (inactive)
GI50 [49]: 2.07 µM (inactive)
GI50 [50]: 2.97 µM (inactive)
GI50 [51]: 4.53 µM (inactive)
GI50 [52]: 4.61 µM (inactive)
GI50 [53]: 7.35 µM (inactive)
GI50 [54]: 4.98 µM (inactive)
GI50 [56]: 0.851 µM (active)
GI50 [57]: 3.33 µM (inactive)
